Experimental data reported in patent US10124004B2, “Pyrido[3,4-d]pyrimidine derivative and pharmaceutically acceptable salt thereof” (Teijin Pharma Limited, priority 2015, dated 2018).
Like-named read-outs stand apart in the source and are kept apart here.

Key:
CDK2/cyclin A2 = target: T1, CDK2/cyclin A2 (Homo sapiens, UniProt P24941); assay: Human CDK2/cyclin A2 inhibitory activity (QS S Assist CDK2/Cyclin A2_FP Kit, IMAP fluorescence polarization); type: biochemical
T1 construct: purchased Carna Biosciences, Inc. QS S Assist CDK2/Cyclin A2_FP Kit
Summary of the method: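 Kinase activity read as fluorescence polarization (485/535 nm) after phosphorylated fluorescent substrate binds IMAP reagent (30 min, RT, dark). Enzyme (2.5 ng/well) reacted 60 min at RT with ATP/substrate/metal in HEPES pH 7.4 buffer with Tween 20 and DTT; no-enzyme wells define 0% activity; IC50 by curve fit.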

CDK4/cyclin D3 = target: T2, CDK4/cyclin D3 (Homo sapiens, UniProt P11802); assay: Human CDK4/cyclin D3 inhibitory activity (QS S Assist CDK4/Cyclin D3_FP Kit, IMAP fluorescence polarization); type: biochemical
T2 construct: purchased Carna Biosciences, Inc. QS S Assist CDK4/Cyclin D3_FP Kit
T2 sequence (P11802 whole entry): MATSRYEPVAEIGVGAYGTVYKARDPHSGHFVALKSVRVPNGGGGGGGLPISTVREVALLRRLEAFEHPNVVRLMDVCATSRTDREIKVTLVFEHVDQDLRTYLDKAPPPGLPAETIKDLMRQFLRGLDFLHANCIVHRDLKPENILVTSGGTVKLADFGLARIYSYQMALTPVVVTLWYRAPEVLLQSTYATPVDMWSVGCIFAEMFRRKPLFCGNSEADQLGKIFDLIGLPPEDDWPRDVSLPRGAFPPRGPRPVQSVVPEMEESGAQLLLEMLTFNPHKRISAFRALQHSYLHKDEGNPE
T2 sequence (P30281 whole entry partner): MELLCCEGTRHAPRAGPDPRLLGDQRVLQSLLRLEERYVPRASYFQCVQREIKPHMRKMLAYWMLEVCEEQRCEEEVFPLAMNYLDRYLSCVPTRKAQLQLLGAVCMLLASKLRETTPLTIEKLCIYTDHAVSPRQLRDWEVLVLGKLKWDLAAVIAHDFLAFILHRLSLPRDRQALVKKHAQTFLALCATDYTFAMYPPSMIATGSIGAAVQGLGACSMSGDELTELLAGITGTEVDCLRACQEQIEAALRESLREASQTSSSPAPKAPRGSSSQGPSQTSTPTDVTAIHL
Summary of the method: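 IMAP fluorescence-polarization kinase assay with kit ATP/substrate/metal mix and 12.5 to 25 ng/well enzyme in 20 mM HEPES pH 7.4, 0.01% Tween20, 2 mM DTT. Reaction ran 45 min at room temperature, then binding reagent was added for 30 min in the dark. IC50 was taken from dose-response fits of percent inhibition.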

[1] = 50% inhibitory concentration against CDK2/cyclin A2, given as class symbol
[2] = 50% inhibitory concentration against CDK4/cyclin D3, given as class symbol
[3] = Human CDK2/cyclin A2 inhibitory activity, read-out: CDK2 Activity symbol
[4] = Human CDK4/cyclin D3 inhibitory activity, read-out: CDK4 Activity symbol

SMILES	IC50 (CDK2/cyclin A2; [1])	IC50 (CDK4/cyclin D3; [2])	IC50 (CDK2/cyclin A2; [3])	IC50 (CDK4/cyclin D3; [4])
CNC1CCCC1Oc1ccc(Nc2ncc3cc(C(C)O)nc(NC(C)C)c3n2)nc1 (stereo not shown) [Compound 739]	≥ 100 nM	< 10 nM	–	–
CC(C)Nc1nc([C@@H](C)O)c(Cl)c2cnc(Nc3ccc(N4CCC(O)CC4)nn3)nc12 [Compound 753]	≥ 100 nM	< 10 nM	–	–
CCCCNc1nc([C@@H](C)O)cc2cnc(Nc3ccc(CN4CCC(CO)CC4)cn3)nc12 [Compound 1148]	≥ 100 nM	< 10 nM	–	–
CC(C)Nc1nc(C(F)F)cc2cnc(Nc3ccc(N4CCC(C(C)(C)O)CC4)nn3)nc12 [Compound 191]	–	–	10 to 100 nM	< 10 nM
CC(C)Nc1nc([C@@H](C)O)cc2cnc(Nc3ccc(N4CCCC(C(=O)O)C4)cn3)nc12 (stereo partly shown) [Compound 835]	≥ 100 nM	10 to 100 nM	–	–
C[C@@H](O)c1cc2cnc(Nc3ccc(CN4CCN(CCO)CC4)cn3)nc2c(NCCC(F)F)n1 [Compound 1213]	≥ 100 nM	< 10 nM	–	–
OCCN1CCc2nc(Nc3ncc4cc(C5CCOC5)nc(N[C@H]5CCCOC5)c4n3)ccc2C1 (stereo partly shown) [Compound 1122]	≥ 100 nM	< 10 nM	–	–
CC(C)Nc1nc(C(F)F)cc2cnc(Nc3ccc(NC(=O)CCO)cn3)nc12 [Compound 98]	–	–	≥ 100 nM	≥ 100 nM
CC(C)Nc1nc([C@@H](C)O)cc2cnc(Nc3ccc(N4CCC(O)C(C)(C)C4)nn3)nc12 (stereo partly shown) [Compound 664]	≥ 100 nM	< 10 nM	–	–
CO[C@H](C)c1cc2cnc(Nc3ccc(CCCN4CCOCC4=O)cn3)nc2c(NC(C)C)n1 [Compound 192]	–	–	≥ 100 nM	10 to 100 nM
CNCCOc1ccc(Nc2ncc3cc([C@@H](C)O)nc(NC4CCC(C)(C)OC4)c3n2)nc1 (stereo partly shown) [Compound 634]	≥ 100 nM	< 10 nM	–	–
C[C@@H](O)c1cc2cnc(Nc3ccc(CN4CCC(O)CC4)cn3)nc2c(N[C@H]2CC[C@H](O)CC2)n1 [Compound 1064]	≥ 100 nM	< 10 nM	–	–
CC(C)Nc1nc([C@@H](C)O)cc2cnc(Nc3ccc(N4CCOCC4=O)cn3)nc12 [Compound 804]	≥ 100 nM	< 10 nM	–	–
CCC(OC)c1cc2cnc(Nc3ccc(CN4CCNCC4)cn3)nc2c(NC(C)C)n1 (stereo not shown) [Compound 1066]	≥ 100 nM	10 to 100 nM	–	–
CCNc1nc([C@@H](C)O)cc2cnc(Nc3cc(C)c(CN4CCN(CCO)CC4)cn3)nc12 [Compound 1053]	≥ 100 nM	10 to 100 nM	–	–
Cc1c(CO)nc(NC(C)C)c2nc(Nc3ccc(N4CCNCC4)cn3)ncc12 [Compound 62]	–	–	≥ 100 nM	< 10 nM
C[C@@H](O)c1cc2cnc(Nc3ccc(C4CCN(C(C)(C)C(=O)O)CC4)cn3)nc2c(NC(C)(C)C)n1 [Compound 834]	≥ 100 nM	< 10 nM	–	–
COC1CCC(Nc2nc(C(C)OC)cc3cnc(Nc4ccc(CN5CCNCC5)cn4)nc23)CC1 (stereo not shown) [Compound 395]	–	–	≥ 100 nM	< 10 nM
C[C@@H](O)c1cc2cnc(Nc3ccc(N4CCNCC4=O)cn3)nc2c(NCC2CCCOC2)n1 (stereo partly shown) [Compound 691]	≥ 100 nM	< 10 nM	–	–
CCCCNc1nc([C@@H](C)OC)cc2cnc(Nc3ccc(N4CCNCC4)nn3)nc12 [Compound 855]	≥ 100 nM	< 10 nM	–	–
CC(C)Nc1nc(C2CCOC2)cc2cnc(Nc3ccc(CN4CCN(CC#N)CC4)cn3)nc12 (stereo not shown) [Compound 1014]	≥ 100 nM	< 10 nM	–	–
CO[C@H](C)c1cc2cnc(Nc3ccc(CN4[C@@H](C)COC[C@@H]4C)cn3)nc2c(NC(C)C)n1 [Compound 280]	–	–	≥ 100 nM	≥ 100 nM
CO[C@H](C)c1cc2cnc(Nc3ccc(CC(N)=O)cn3)nc2c(NC(C)C)n1 [Compound 231]	–	–	≥ 100 nM	10 to 100 nM
C[C@@H](O)c1cc2cnc(Nc3ccc(N4CCNCC4)nn3)nc2c(NC2CCS(=O)(=O)CC2)n1 [Compound 322]	–	–	≥ 100 nM	10 to 100 nM
C[C@@H](O)c1cc2cnc(Nc3ccc4c(n3)CCN(C(=O)CO)C4)nc2c(N[C@H]2CCCOC2)n1 [Compound 1118]	≥ 100 nM	< 10 nM	–	–
CC(C)Nc1nc([C@@H](C)O)cc2cnc(Nc3cnc(N4CCNCC4=O)cn3)nc12 [Compound 716]	≥ 100 nM	10 to 100 nM	–	–
CC(C)Nc1nc(C(C)O)cc2cnc(Nc3ccc(OC4CCNCC4F)cn3)nc12 (stereo not shown) [Compound 708]	≥ 100 nM	< 10 nM	–	–
CC(C)Nc1nc([C@@H](C)O)cc2cnc(Nc3ccc(C4CCNCC4)nn3)nc12 [Compound 318]	–	–	≥ 100 nM	< 10 nM
CC(C)CN1CCN(c2ccc(Nc3ncc4cc([C@@H](C)O)nc(NC(C)C)c4n3)nn2)CC1 [Compound 586]	–	–	≥ 100 nM	< 10 nM
